According to ChEMBL document CHEMBL1154925 (Bioorg Med Chem Lett, 2010):
Calls of active or inactive are those of the source. The calls are words filed in the database; no cut-off is given here.

Columns and labels:
[1] = tested on: Trypanosoma brucei brucei; conditions: 100 nM
[2] = Half life in stimulated gastric fluid of pH 1.0; conditions: simulated gastric fluid
[3] = target: Prostaglandin G/H synthase 1 (Homo sapiens) (UniProt P23219); assay: Inhibition of human COX1
[4] = target: T1, Prostaglandin G/H synthase 2 (Mus musculus, UniProt Q05769)
T1 sequence (Q05769 whole entry): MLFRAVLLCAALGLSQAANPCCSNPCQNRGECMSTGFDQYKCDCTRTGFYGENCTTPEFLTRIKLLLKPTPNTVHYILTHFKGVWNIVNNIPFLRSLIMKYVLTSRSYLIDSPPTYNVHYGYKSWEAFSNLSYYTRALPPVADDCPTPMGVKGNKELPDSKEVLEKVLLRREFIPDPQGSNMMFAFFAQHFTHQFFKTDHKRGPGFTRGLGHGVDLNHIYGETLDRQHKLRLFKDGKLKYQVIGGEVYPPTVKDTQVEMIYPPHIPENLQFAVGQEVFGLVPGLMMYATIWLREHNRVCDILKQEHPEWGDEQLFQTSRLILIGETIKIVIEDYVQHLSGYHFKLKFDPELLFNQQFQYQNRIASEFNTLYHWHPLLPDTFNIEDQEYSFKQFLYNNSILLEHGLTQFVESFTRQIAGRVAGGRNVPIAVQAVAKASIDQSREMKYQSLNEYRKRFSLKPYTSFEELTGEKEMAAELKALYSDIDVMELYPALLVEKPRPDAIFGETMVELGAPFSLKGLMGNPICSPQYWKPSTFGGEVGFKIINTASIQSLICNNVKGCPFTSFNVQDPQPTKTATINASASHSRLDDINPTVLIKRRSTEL

Raji = assay: cells; conditions: Homo sapiens, 72 h
HEK293 = assay: cells; conditions: Homo sapiens, HEK293, 72 h
[5] = tested on: Trypanosoma brucei brucei; conditions: 1 uM
[6] = target: T2, Prostaglandin G/H synthase 2 (Homo sapiens) (UniProt P35354); assay: Inhibition of human COX2
T2 sequence (whole entry): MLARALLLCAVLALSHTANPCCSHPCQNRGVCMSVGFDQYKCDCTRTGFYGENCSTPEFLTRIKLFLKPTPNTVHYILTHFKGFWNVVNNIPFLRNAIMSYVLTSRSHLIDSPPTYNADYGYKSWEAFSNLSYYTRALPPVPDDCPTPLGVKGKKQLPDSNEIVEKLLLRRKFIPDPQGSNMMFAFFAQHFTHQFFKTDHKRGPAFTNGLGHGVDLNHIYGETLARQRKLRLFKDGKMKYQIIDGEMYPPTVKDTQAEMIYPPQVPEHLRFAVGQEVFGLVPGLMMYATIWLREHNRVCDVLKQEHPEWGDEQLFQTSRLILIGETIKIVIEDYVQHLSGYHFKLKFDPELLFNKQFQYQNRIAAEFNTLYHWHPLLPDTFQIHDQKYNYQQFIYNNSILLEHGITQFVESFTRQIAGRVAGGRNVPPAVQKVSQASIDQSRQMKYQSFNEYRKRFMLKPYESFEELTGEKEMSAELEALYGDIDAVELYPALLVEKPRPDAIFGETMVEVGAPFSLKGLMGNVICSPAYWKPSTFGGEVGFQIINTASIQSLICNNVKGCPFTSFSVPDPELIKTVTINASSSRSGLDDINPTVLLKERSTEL

[7] = target: T3, Prostaglandin G/H synthase 1 (Ovis aries, UniProt P05979)
T3 sequence (P05979 whole entry): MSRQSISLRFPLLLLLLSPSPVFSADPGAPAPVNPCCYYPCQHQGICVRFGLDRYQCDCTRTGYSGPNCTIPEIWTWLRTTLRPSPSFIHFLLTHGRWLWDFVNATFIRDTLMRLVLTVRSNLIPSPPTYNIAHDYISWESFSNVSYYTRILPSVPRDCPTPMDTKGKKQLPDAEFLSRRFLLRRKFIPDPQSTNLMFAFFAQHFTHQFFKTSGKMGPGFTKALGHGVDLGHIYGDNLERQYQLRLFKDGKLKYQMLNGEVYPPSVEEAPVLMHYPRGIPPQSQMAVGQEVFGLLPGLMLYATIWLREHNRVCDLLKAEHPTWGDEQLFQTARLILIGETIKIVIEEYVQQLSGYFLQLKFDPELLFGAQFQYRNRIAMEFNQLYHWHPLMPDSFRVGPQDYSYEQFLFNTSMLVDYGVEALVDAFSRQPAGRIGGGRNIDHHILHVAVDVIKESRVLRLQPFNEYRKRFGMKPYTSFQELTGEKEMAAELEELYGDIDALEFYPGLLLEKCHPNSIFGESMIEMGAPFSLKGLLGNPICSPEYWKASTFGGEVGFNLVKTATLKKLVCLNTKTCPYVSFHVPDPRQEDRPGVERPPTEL

[8] = tested on: Trypanosoma brucei brucei; conditions: 100 nM; remark: listed apart in the source
[9] = tested on: Trypanosoma brucei brucei; conditions: 1 uM; remark: listed apart in the source
[10] = tested on: Trypanosoma brucei brucei; assay: microbe, parasite or virus in culture; conditions: 48 h

Chain of Prostaglandin G/H synthase 1 (Homo sapiens) (P23219 whole entry): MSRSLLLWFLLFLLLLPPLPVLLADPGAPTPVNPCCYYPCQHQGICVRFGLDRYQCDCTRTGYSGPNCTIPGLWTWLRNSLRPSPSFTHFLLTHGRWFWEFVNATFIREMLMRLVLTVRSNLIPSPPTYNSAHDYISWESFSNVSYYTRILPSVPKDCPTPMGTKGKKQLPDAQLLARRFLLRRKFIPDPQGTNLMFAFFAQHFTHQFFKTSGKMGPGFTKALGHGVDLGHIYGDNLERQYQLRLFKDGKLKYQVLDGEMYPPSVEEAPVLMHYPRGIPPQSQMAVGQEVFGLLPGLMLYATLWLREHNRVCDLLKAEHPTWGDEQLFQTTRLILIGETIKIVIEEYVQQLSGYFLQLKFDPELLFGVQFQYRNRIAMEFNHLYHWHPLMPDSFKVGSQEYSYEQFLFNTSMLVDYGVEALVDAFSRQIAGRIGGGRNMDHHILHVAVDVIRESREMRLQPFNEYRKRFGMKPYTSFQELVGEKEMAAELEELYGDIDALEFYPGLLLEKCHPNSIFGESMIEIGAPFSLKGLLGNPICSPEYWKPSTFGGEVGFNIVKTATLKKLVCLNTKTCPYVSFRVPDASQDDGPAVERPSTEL

| Structure (SMILES) | inhibition [1] | half-life [2] | inhibition [3] | IC50 [4] | IC50 (Raji) | IC50 (HEK293) | inhibition [5] | inhibition [6] | IC50 [7] | inhibition [8] | inhibition [9] | IC50 [10] |
| --- | --- | --- | --- | --- | --- | --- | --- | --- | --- | --- | --- | --- |
| COc1ccc2c(c1)c(CC(=O)NCCCCNC(=O)CCC(=O)O[C@@H]1c3cc4c(cc3[C@H](c3cc(OC)c(OC)c(OC)c3)[C@@H]3C(=O)OC[C@H]31)OCO4)c(C)n2C(=O)c1ccc(Cl)cc1 | Active | > 24 h | inactive | 295 nM | 120 nM | 160 nM | Active | inactive | – | – | – | – |
| COc1cc([C@@H]2c3cc4c(cc3[C@H](OC(=O)CCC(=O)O)[C@H]3COC(=O)[C@H]23)OCO4)cc(OC)c1OC [SUCCINYLPODOPHYLLOTOXIN] | – | > 24 h | – | > 4000 nM | 100 nM | 76 nM | – | – | > 4000 nM | – | – | – |
| COc1cc([C@H]2c3cc4c(cc3[C@@H](OC(=O)CCC(=O)NC[C@H](C)c3ccccc3)[C@@H]3COC(=O)[C@@H]23)OCO4)cc(OC)c1OC | – | > 24 h | – | > 4000 nM | 540 nM | 360 nM | – | – | > 4000 nM | – | – | – |
| COc1ccc2c(c1)c(CC(=O)NCCOC(=O)CCC(=O)O[C@@H]1c3cc4c(cc3[C@H](c3cc(OC)c(OC)c(OC)c3)[C@@H]3C(=O)OC[C@H]31)OCO4)c(C)n2C(=O)c1ccc(Cl)cc1 | – | > 24 h | inactive | – | 1300 nM | 860 nM | – | inactive | – | – | – | – |
| CO[C@@H](/C(C)=C/C=C/C(C)=C/c1coc(C)n1)[C@@H](C)[C@@H]1C[C@H](O)[C@@]2(C)O[C@@H]2/C=C/[C@@H](C)[C@H]2C[C@H](CC(=O)O2)C[C@@H]2O[C@H]2C(=O)O1 [RHIZOXIN] | – | > 24 h | – | – | 340 nM | 350 nM | – | – | – | Active | Active | – |
| COc1ccc2cc([C@@H](C)C(=O)NCCCCNC(=O)CCC(=O)O[C@@H]3c4cc5c(cc4[C@H](c4cc(OC)c(OC)c(OC)c4)[C@@H]4C(=O)OC[C@H]43)OCO5)ccc2c1 | – | > 24 h | – | > 4000 nM | 430 nM | 330 nM | – | – | > 4000 nM | – | – | – |
| COc1cc([C@@H]2c3cc4c(cc3[C@H](O)[C@H]3COC(=O)[C@H]23)OCO4)cc(OC)c1OC [PODOFILOX] | – | > 24 h | – | > 4000 nM | 18 nM | 17 nM | – | – | > 4000 nM | – | – | – |
| COc1ccc2c(c1)c(CC(=O)NCCCCCNC(=O)CCC(=O)O[C@@H]1c3cc4c(cc3[C@H](c3cc(OC)c(OC)c(OC)c3)[C@@H]3C(=O)OC[C@H]31)OCO4)c(C)n2C(=O)c1ccc(Cl)cc1 | – | > 24 h | inactive | – | 280 nM | – | – | inactive | > 4000 nM | – | – | – |
| COc1cc([C@H]2c3cc4c(cc3[C@@H](OC(=O)CCC(=O)NCCCCNC(=O)[C@@H](C)c3cccc(C(=O)c5ccccc5)c3)[C@@H]3COC(=O)[C@@H]23)OCO4)cc(OC)c1OC | – | > 24 h | – | > 4000 nM | > 50000 nM | > 50000 nM | – | – | > 4000 nM | – | – | – |
| COc1ccc(CCNC(=O)CCC(=O)O[C@@H]2c3cc4c(cc3[C@H](c3cc(OC)c(OC)c(OC)c3)[C@@H]3C(=O)OC[C@H]32)OCO4)cc1 | – | > 24 h | – | > 4000 nM | 130 nM | 79 nM | – | – | > 4000 nM | – | – | – |
| COc1cc([C@H]2c3cc4c(cc3[C@@H](OC(=O)CCC(=O)NCCCCNC(=O)[C@@H](C)c3ccc(-c5ccccc5)c(F)c3)[C@@H]3COC(=O)[C@@H]23)OCO4)cc(OC)c1OC | – | > 24 h | – | > 4000 nM | 180 nM | 180 nM | – | – | > 4000 nM | – | – | – |
| COc1ccc2c(c1)c(CC(=O)O)c(C)n2C(=O)c1ccc(Cl)cc1 [INDOMETHACIN] | – | > 24 h | – | – | > 50000 nM | > 50000 nM | – | – | – | – | – | > 50000 nM |
| COc1ccc2c(c1)c(CCNC(=O)CCC(=O)O[C@@H]1c3cc4c(cc3[C@H](c3cc(OC)c(OC)c(OC)c3)[C@@H]3C(=O)OC[C@H]31)OCO4)c(C)n2Cc1ccc(Br)cc1 | – | > 24 h | – | > 4000 nM | 420 nM | 240 nM | – | – | > 4000 nM | – | – | – |
| COc1cc([C@H]2c3cc4c(cc3[C@@H](OC(=O)CCC(=O)NCCCCNC(=O)[C@@H](C)c3ccc(CC(C)C)cc3)[C@@H]3COC(=O)[C@@H]23)OCO4)cc(OC)c1OC | – | > 24 h | – | > 4000 nM | 170 nM | 160 nM | – | – | > 4000 nM | – | – | – |
| COc1ccc2c(c1)c(CC(=O)N1CCN(C(=O)CCC(=O)O[C@@H]3c4cc5c(cc4[C@H](c4cc(OC)c(OC)c(OC)c4)[C@@H]4C(=O)OC[C@H]43)OCO5)CC1)c(C)n2C(=O)c1ccc(Cl)cc1 | – | > 24 h | inactive | – | 510 nM | 520 nM | – | inactive | – | – | – | – |
| COc1cc([C@H]2c3cc4c(cc3[C@@H](OC(=O)CCC(=O)NCc3ccc(NS(=O)(=O)c5cccc6c(N(C)C)cccc56)cc3)[C@@H]3COC(=O)[C@@H]23)OCO4)cc(OC)c1OC | – | > 24 h | – | > 4000 nM | 37 nM | – | – | – | > 4000 nM | – | – | – |
